In PubChem BioAssay (NCI) one finds GI50 and TGI data, which are given here for 25 compounds.

Some test systems named below: MDA-MB-435; NCI/ADR-RES ovarian; SNB-78 CNS; DLD-1 colon; DMS 114 small cell lung; MDA-N; HOP-18 NSCLC; XF 498 CNS.
Common to all, as to experiment: NCI-60 cell line screen, 48 h

Each structure is given as a SMILES string.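 Step 1: Grow cells in 96-well plates. Step 2: Expose to compound for 48 hours at 5 concentrations. Step 3: Interpolate endpoints linearly; if unreached, use highest concentration. Abbreviation: GI50, concentration required for 50% inhibition of growth. The concentration for full growth arrest is given as TGI.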 A value given as a limit tells only on which side of the number the result lay.

Turning to `COC(=O)/C(C#N)=C\N1CCN(C(=O)c2ccco2)C1=S`, in the assay on MDA-MB-435, the GI50 is 6.82 µM and the TGI turned out to be 46.5 µM. For the same compound, in the assay on NCI/ADR-RES ovarian, the GI50 was 24 µM and the TGI stood at 58.4 µM.
With `COc1cc2cc3c4c(cc(OC)c(OC)c4c2cc1OC)CCN3C(=O)CCCC(=O)O`, the TGI in the assay with SNB-78 CNS, with DLD-1 colon and in the assay with DMS 114 small cell lung was more than 100 µM in each case.
In the case of `COc1cc(/C=C/C(=O)C(=Cc2ccc(F)c(F)c2)C(=O)/C=C/c2ccc(O)c(OC)c2)ccc1O`, in the assay on MDA-MB-435, the GI50 was 2.93 µM and the TGI was 10.2 µM. Besides, in the assay with NCI/ADR-RES ovarian, the GI50 is 4.06 µM and the TGI is more than 100 µM.
On the same counts, the results for `C=CCN1C(=O)/C(=c2\sc3n(c2=O)C2C(NN=3)N(CC)C(=O)N2CC)c2ccccc21` (configuration not stated) are 0.207 µM, 0.491 µM, 0.434 µM and more than 40.5 µM.
On the same counts, the results for `Cc1ccc(/C=C(\C#N)n2nnc3cc(Cl)c(Cl)cc32)cc1` are 0.909 µM, 6.8 µM, 2.22 µM and 7.61 µM.
On to `COc1cccc(Nc2nc(NNC(=O)Cc3ccccc3)nc(NNC(=O)c3ccncc3)n2)c1`, for which the GI50 with MDA-N and in the assay on NCI/ADR-RES ovarian was more than 100 µM throughout. The TGI with MDA-N, in the assay on MDA-MB-435 and with NCI/ADR-RES ovarian was more than 100 µM in each case.
For `CC(C)=CC/C=C(/C)[C@H]1CC[C@]2(C)[C@@H]1CC[C@@H]1[C@@]3(C)CCC(=O)NC(C)(C)[C@@H]3CC[C@]12C`, the GI50 is 20.7 µM with MDA-MB-435 and 22.2 µM in the assay on NCI/ADR-RES ovarian. Moreover, the TGI in the assay on MDA-MB-435 amounted to 48.9 µM; with NCI/ADR-RES ovarian it was 55.6 µM.
On to `NC(=O)c1ccccc1NC(=O)C(=O)C(C(=O)c1ccc2ccccc2c1)C1OC(=O)c2ccccc21` (configuration not stated), for which the values for the TGI in the assay on HOP-18 NSCLC, in the assay with XF 498 CNS and in the assay on SNB-78 CNS were 22.7 µM, 12.8 µM and more than 100 µM, respectively.
On to `CN(C)c1cccc(-c2cc(=O)c3ccccc3[nH]2)c1`, for which the TGI in the assay on SNB-78 CNS, with DLD-1 colon and with DMS 114 small cell lung was more than 100 µM in each case. Besides, in the assay with DMS 114 small cell lung, the GI50 is 46 µM.
In the case of `CCCc1cc(=O)oc2c(C(=O)CC(C)C)c(O)c(CC=C(C)C)c(O)c12`, in the assay on MDA-MB-435, the GI50 was 11.8 µM and the TGI was found to be 43.1 µM. Further, in the assay on NCI/ADR-RES ovarian, the GI50 is 8.6 µM and the TGI was determined as 48.1 µM.
Take `O=C(N[C@H](c1ccc(Cl)c(Cl)c1)C1CNC1)c1ccc2cnccc2c1`: in the assay on MDA-MB-435, the GI50 is 2.84 µM and the TGI was 11.8 µM. Also, in the assay on NCI/ADR-RES ovarian, the GI50 is 15.6 µM and the TGI worked out at 30.2 µM.
Regarding `CCOP(=O)(CCP(=O)(OCC)OCC)OCC.C[CH2][Sn]([Cl])([Cl])[CH2]C`, the GI50 with HOP-18 NSCLC was 20.7 µM; with MDA-N, more than 100 µM; in the assay with MDA-MB-435 it was more than 100 µM; in the assay with NCI/ADR-RES ovarian, more than 100 µM; with SNB-78 CNS, 17.2 µM; in the assay on DLD-1 colon, 27.7 µM. The GI50 in the assay on DMS 114 small cell lung is 16.7 µM. The TGI in the assay with HOP-18 NSCLC is 35 µM; in the assay on MDA-N, more than 100 µM; in the assay with MDA-MB-435, more than 100 µM; in the assay on NCI/ADR-RES ovarian, more than 100 µM; in the assay on SNB-78 CNS, 41.8 µM; with DLD-1 colon, more than 79 µM. This compound came in with a TGI in the assay on DMS 114 small cell lung of 34.5 µM.
On to `C[N+](C)(C)CCOP(=O)(O)OP(=O)([O-])OCC1CCC(n2ccc(N)nc2=O)O1` (configuration not stated), for which the TGI in the assay with MDA-N, in the assay with MDA-MB-435 and in the assay with NCI/ADR-RES ovarian was more than 100 µM each time.
Take `Clc1ccc(-c2nc3c(-c4ccc(Cl)cc4)nc(-c4ccccc4)cn3c2-c2ccc(Cl)cc2)cc1`: in the assay on MDA-MB-435, the GI50 is more than 50 µM and the TGI is more than 50 µM. In the assay on NCI/ADR-RES ovarian, the GI50 is more than 50 µM and the TGI is more than 50 µM.
As for `COc1cc(CNC(=O)/C=C/C=C/c2ccc3c(c2)OCO3)ccc1OCc1cn(-c2ccc(Cl)c(Cl)c2)nn1`, in the assay on MDA-MB-435, the GI50 was 2 µM and the TGI was found to be 4.75 µM. For the same compound, in the assay with NCI/ADR-RES ovarian, the GI50 was 1.42 µM and the TGI came to 4.93 µM.
The like results for `CCCCCCN(CCCCCC)CCCNc1nccc2ccccc12` were, in that order, 1.57 µM, 3.06 µM, 1.6 µM and 3.37 µM.
`CCCCCCCCCc1cc(O)c(O)cc1CCCCCCCCC`: the TGI with MDA-N, in the assay on MDA-MB-435 and with NCI/ADR-RES ovarian was more than 10 µM each time.
Take `C/C(=N/O)C1CC=C(S(=O)(=O)c2ccccc2)C1` (configuration not stated): the TGI with DLD-1 colon is more than 100 µM.
Consider `O=C1C2=C(C(=O)c3c(O)ccc(O)c31)N(c1ccc(N3CCOCC3)nc1)Cc1ccccc1O2`, for which, in the assay on MDA-MB-435, the GI50 is 0.321 µM and the TGI was determined as 1.05 µM. In the assay on NCI/ADR-RES ovarian, the GI50 is 0.401 µM and the TGI turned out to be 13 µM.
Regarding `CN(C)CCNC(=O)c1cccc2nc3ccc4ccccc4c3nc12`, the TGI in the assay on HOP-18 NSCLC is 0.446 µM; in the assay with SNB-78 CNS, 10 µM; in the assay on DLD-1 colon it was 1.46 µM; with DMS 114 small cell lung it was 0.293 µM.
Take `O=S(=O)(NCCNc1nccc(-c2c(-c3cccc(O)c3)nc3sccn23)n1)c1ccc(F)cc1`: in the assay with MDA-MB-435, the GI50 was 0.939 µM and the TGI is 11.6 µM. Also, in the assay with NCI/ADR-RES ovarian, the GI50 was 53 µM and the TGI was more than 100 µM.
On to `CSC1=Nc2c(c(C)c(-c3ccccc3)n2COC(CO)CO)C2=NC(=O)C(C)N12` (configuration not stated), for which the GI50 in the assay on MDA-MB-435 and in the assay with NCI/ADR-RES ovarian was more than 100 µM each time. Besides, the TGI in the assay with MDA-MB-435 and in the assay with NCI/ADR-RES ovarian was more than 100 µM throughout.
As to `C/C(CC(O)(C(F)(F)F)C(F)(F)F)=N\N`, the TGI with MDA-N, in the assay on MDA-MB-435 and in the assay on NCI/ADR-RES ovarian was more than 10 µM each time.
As for `CCN(CC)CCn1ncc2ccc3c(c(=O)c4cccnc4n3CCN(CC)CC)c21`, the values for the TGI in the assay with MDA-N, in the assay with MDA-MB-435 and in the assay on NCI/ADR-RES ovarian were 2.15 µM, 1.94 µM and 4.86 µM, respectively.
As to `Cn1cc(-c2csc(-c3c[nH]c4ncccc34)n2)c2cc(Br)cnc21`, in the assay on MDA-MB-435, the GI50 was 3.17 µM and the TGI amounted to 32.8 µM. Besides, in the assay with NCI/ADR-RES ovarian, the GI50 is 3.89 µM and the TGI is more than 100 µM.
